Measurements reported in patent US20230416330A1, “Optimized GIP Peptide Analogues” (Antag Therapeutics ApS, priority 2019, published 2023).
Starred links: 1 amine or outer side, 2 acyl side, 3 side chain; linkers in the order of their positions; H or OH if unused. Non-standard residues stand in square brackets, D forms with d. Residues, ends and D or L forms follow the SMILES beside them. Groups on a side chain read outwards from the residue. *: point of attachment. C18 diacid = O=C(O)CCCCCCCCCCCCCCCCC(=O)*; C16 diacid = O=C(O)CCCCCCCCCCCCCCC(=O)*; γGlu = O=C(O)[C@H](CCC(=O)[*:2])N[*:1]; Nle = CCCC[C@H](N)C(=O)O; AEEA = NCCOCCOCC(=O)O; Aib = CC(C)(N)C(=O)O

target: T1, human GIP receptor (Homo sapiens, UniProt P48546); test: cAMP assay Alternative 1 (CisBio assay), GIPR antagonism; assay type: cell-based; conditions: Table 2B; % inhibition of Emax
T1 construct: host or cells: HEK-293 cells, transient transfection (Lipofectamine 2000), cDNA in pCMV-Script vector
T1 sequence (P48546 22-466): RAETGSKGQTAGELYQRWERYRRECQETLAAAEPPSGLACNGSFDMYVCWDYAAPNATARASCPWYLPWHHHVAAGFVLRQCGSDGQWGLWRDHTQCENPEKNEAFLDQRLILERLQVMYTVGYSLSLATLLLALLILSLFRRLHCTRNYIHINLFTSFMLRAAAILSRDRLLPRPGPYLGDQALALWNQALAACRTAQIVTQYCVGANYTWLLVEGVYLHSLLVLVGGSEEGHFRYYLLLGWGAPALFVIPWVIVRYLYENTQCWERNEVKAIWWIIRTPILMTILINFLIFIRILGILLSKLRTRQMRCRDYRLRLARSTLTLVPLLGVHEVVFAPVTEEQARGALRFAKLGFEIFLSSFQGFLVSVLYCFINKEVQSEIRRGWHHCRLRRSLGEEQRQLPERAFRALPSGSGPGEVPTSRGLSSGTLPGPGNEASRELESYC
Experimental: HEK293 cells were cultured in 10% CO2 and 37° C. in Dulbecco's modified Eagle's medium supplemented with 10% fetal bovine serum, 2 mM glutamine, 180 units/ml penicillin, and 45 µg/ml streptomycin. Transient transfection with hGIPR for the CisBio assay from Table 2C was performed by using Lipofectamine 2000.
The in vitro functional activity of compounds towards human GIP receptor can also be determined in HEK-293 cells transiently expressing the receptor. On the day of the assay, cells were resuspended in HBSS buffer (Gibco, 14025-50) supplemented with […] (Gibco, 15630-106), 0.1% Pluronic F-68 (Gibco, 24040-032) and 0.1% casein (Sigma, C4765), and plated in 384-well plates at a density of 5000 cells/well. The GIP peptide analogues of the present disclosure were diluted in HBSS buffer supplemented with 20 mM HEPES, 0.1% pluronic, 0.1% casein and 500 uM IBMX. […] The resulting decrease in intracellular cAMP was quantitatively determined using the CisBio cAMP Dynamic 2 HTRF Assay Kit. The assay is based on a competition between native cAMP produced by cells and cAMP labeled with the dye d2 for binding to a cryptate labeled antibody. The specific signal (i.e. energy transfer signal) is inversely proportional to the concentration of cAMP in the sample.
The cAMP-d2 conjugate and the antibody anti-cAMP-Cryptate, both diluted in lysis buffer provided in the kit, were added to the cells according to the manufacturer's protocol. The resulting competitive assay was incubated for 60 minutes at room temperature, and the signal was detected by using a PerkinElmer Envision® instrument with excitation at 320 nm and emission at 665 nm and 620 nm. The HTRF ratio (emission at 665 nm/620 nm*10,000) is inversely proportional to the amount of cAMP present and is converted to nM cAMP per well using a cAMP standard curve. The dose-response curves were fitted using the non-linear regression analysis (four-logistic parameter equation) in GraphPad Prism, whereby pIC50 values were estimated. To test for agonistic properties at the GIP receptor, compounds were diluted and added to cells as described above and incubated for 30 min at 37° C. The resulting increase in intracellular cAMP was determined using the CisBio cAMP Dynamic 2 HTRF Assay Kit as described above.
The dose-response curves were fitted using the non-linear regression analysis (four-logistic parameter equation) in GraphPad Prism, whereby pIC50 values were estimated.

SMILES	cAMP antagonism % inhib [%]
CCCC[C@H](NC(=O)C(C)(C)NC(=O)[C@@H](NC(=O)[C@H](CO)NC(=O)[C@H](Cc1ccc(O)cc1)NC(=O)[C@H](CC(=O)O)NC(=O)[C@H](CO)NC(=O)[C@@H](NC(=O)[C@H](Cc1ccccc1)NC(=O)[C@@H](NC(=O)CNC(=O)[C@@H](N)CCC(=O)O)[C@@H](C)O)[C@@H](C)CC)[C@@H](C)CC)C(=O)N[C@@H](CC(=O)O)C(=O)N[C@@H](CCCCN)C(=O)N[C@H](C(=O)N[C@@H](CCCCNC(=O)CCCCCCCCCCCCCCC(=O)O)C(=O)N[C@@H](CCC(N)=O)C(=O)N[C@@H](CCC(N)=O)C(=O)N[C@@H](CC(=O)O)C(=O)N[C@@H](Cc1ccccc1)C(=O)N[C@H](C(=O)N[C@@H](CCC(=O)O)C(=O)N[C@@H](Cc1c[nH]c2ccccc12)C(=O)N[C@@H](CC(C)C)C(=O)N[C@@H](CC(C)C)C(=O)N[C@@H](C)C(=O)N[C@@H](CCC(N)=O)C(=O)N[C@@H](CCCCN)C(=O)N1CCC[C@H]1C(=O)N[C@@H](CO)C(=O)N[C@@H](CO)C(=O)NCC(=O)N[C@@H](C)C(=O)N1CCC[C@H]1C(=O)N1CCC[C@H]1C(=O)N1CCC[C@H]1C(=O)N[C@@H](CO)C(=O)O)C(C)C)[C@@H](C)CC [AT667] (H-EGTFISDYSI[Aib][Nle]DKIK(C16 diacid)QQDFVEWLLAQKPSSGAPPPS-OH; N-terminus assumed)	86
CC[C@H](C)[C@H](NC(=O)[C@H](CO)NC(=O)[C@H](Cc1ccc(O)cc1)NC(=O)[C@H](CC(=O)O)NC(=O)[C@H](CO)NC(=O)[C@@H](NC(=O)[C@H](Cc1ccccc1)NC(=O)[C@@H](NC(=O)CNC(=O)[C@@H](N)CCC(=O)O)[C@@H](C)O)[C@@H](C)CC)C(=O)N[C@@H](C)C(=O)N[C@@H](CC(C)C)C(=O)N[C@@H](CC(=O)O)C(=O)N[C@@H](CCCCN)C(=O)N[C@H](C(=O)N[C@@H](CCCCNC(=O)COCCOCCNC(=O)COCCOCCNC(=O)CC[C@H](NC(=O)CCCCCCCCCCCCCCCCC(=O)O)C(=O)O)C(=O)N[C@@H](CCC(N)=O)C(=O)N[C@@H](CCC(N)=O)C(=O)N[C@@H](CC(=O)O)C(=O)N[C@@H](Cc1ccccc1)C(=O)N[C@H](C(=O)N[C@@H](CCC(=O)O)C(=O)N[C@@H](Cc1c[nH]c2ccccc12)C(=O)N[C@@H](CC(C)C)C(=O)N[C@@H](CC(C)C)C(=O)N[C@@H](C)C(=O)N[C@@H](CCC(N)=O)C(=O)N[C@@H](CCCCN)C(=O)N1CCC[C@H]1C(=O)N[C@@H](CO)C(=O)N[C@@H](CO)C(=O)NCC(=O)N[C@@H](C)C(=O)N1CCC[C@H]1C(=O)N1CCC[C@H]1C(=O)N1CCC[C@H]1C(=O)N[C@@H](CO)C(=O)O)C(C)C)[C@@H](C)CC [AT682] (H-EGTFISDYSIALDKIK([AEEA-AEEA-γGlu-C18 diacid])QQDFVEWLLAQKPSSGAPPPS-OH; N-terminus assumed)	89
CCCC[C@H](NC(=O)[C@H](C)NC(=O)[C@@H](NC(=O)[C@H](CO)NC(=O)[C@H](Cc1ccc(O)cc1)NC(=O)[C@H](CC(=O)O)NC(=O)[C@H](CO)NC(=O)[C@@H](NC(=O)[C@H](Cc1ccccc1)NC(=O)[C@@H](NC(=O)CNC(=O)[C@@H](N)CCC(=O)O)[C@@H](C)O)[C@@H](C)CC)[C@@H](C)CC)C(=O)N[C@@H](CC(=O)O)C(=O)N[C@@H](CCCCN)C(=O)N[C@H](C(=O)N[C@@H](CCCCNC(=O)COCCOCCNC(=O)COCCOCCNC(=O)CC[C@H](NC(=O)CCCCCCCCCCCCCCCCC(=O)O)C(=O)O)C(=O)N[C@@H](CCC(N)=O)C(=O)N[C@@H](CCC(N)=O)C(=O)N[C@@H](CC(=O)O)C(=O)N[C@@H](Cc1ccccc1)C(=O)N[C@H](C(=O)N[C@@H](CCC(=O)O)C(=O)N[C@@H](Cc1c[nH]c2ccccc12)C(=O)N[C@@H](CC(C)C)C(=O)N[C@@H](CC(C)C)C(=O)N[C@@H](C)C(=O)N[C@@H](CCC(N)=O)C(=O)N[C@@H](CCCCN)C(=O)N1CCC[C@H]1C(=O)N[C@@H](CO)C(=O)N[C@@H](CO)C(=O)NCC(=O)N[C@@H](C)C(=O)N1CCC[C@H]1C(=O)N1CCC[C@H]1C(=O)N1CCC[C@H]1C(=O)N[C@@H](CO)C(=O)O)C(C)C)[C@@H](C)CC [AT683] (H-EGTFISDYSIA[Nle]DKIK([AEEA-AEEA-γGlu-C18 diacid])QQDFVEWLLAQKPSSGAPPPS-OH; N-terminus assumed)	93
